The text below walks through data of article PMC12122756, “Versatile biocatalyst: lipase from Streptomyces gobitricini for ester synthesis and detergent innovation” (Frontiers in Bioengineering and Biotechnology, 2025).

In this test the test system is T1, LipS.g.
T1 construct: native extracellular enzyme purified from culture supernatant (heat, ammonium sulfate, Sephadex S-200); about 50 kDa SDS-PAGE, 53,262 Da MALDI-TOF
In words: pH-stat titrimetry, Lineweaver-Burk. Type of test: biochemical, Streptomyces gobitricini. The settings on record: pH 9.0, 50°C, triglyceride emulsion, apparent Km. The text has this: pH-stat titrimetry, Lineweaver-Burk on LipS.g

Where two headings read alike, the source gives them in different places.

With `CCCCCCCC/C=C\CCCCCCCC(=O)OCC(COC(=O)CCCCCCC/C=C\CCCCCCCC)OC(=O)CCCCCCC/C=C\CCCCCCCC` [TC18, triolein], the Km (read-out: TC18) stood at 6.45 ± 0.289 mM.
Regarding `CCCC(=O)OCC(COC(=O)CCC)OC(=O)CCC` [TC4, Tributyrin], the Km (read-out: Lipase activity (%) / TC4) stood at 26.7 ± 0.063 mM.
Consider `CCCCCCCC(=O)OCC(COC(=O)CCCCCCC)OC(=O)CCCCCCC` [TC8, trioctanoin], for which the Km (read-out: TC8) turned out to be 13.22 ± 0.106 mM.
